The target in assay [1] is Tartrate-resistant acid phosphatase type 5 (Homo sapiens) (UniProt P13686). Nature of the assay: Tested for inhibition of human Osteoclastic acid phosphatase (OAP), purified from the spleen of a patient with hairy cell leukemia at 100 uM.
For assay [2], the species on record is Mus musculus. Nature of the assay: Compound was tested for thymidine incorporation at 500 uM concentration using [H3 thymidine] as radioligand. It is filed as functional.
The species named for assay [3] is Mus musculus. Description: Compound was tested for the percentage inhibition of PTH stimulated bone resorption in neonatal mouse calvaria placed in culture, at 100 uM concentration. The format is functional.
The species named for assay [4] is Mus musculus. Nature of the assay: Compound was tested for the percentage inhibition of PTH stimulated bone resorption in neonatal mouse calvaria placed in culture, at 500 uM concentration. It is filed as functional.
For assay [5], the species on record is Mus musculus. Description: Compound was evaluated for thymidine incorporation at 1 uM concentration using [H3 thymidine] as radioligand. The format is functional.
The species entered for assay [6] is Mus musculus. Description: Compound was evaluated for thymidine incorporation at 10 uM concentration using [H3 thymidine] as radioligand. It is filed as functional.
The species named for assay [7] is Mus musculus. Nature of the assay: Compound was evaluated for thymidine incorporation at 100 uM concentration using [H3 thymidine] as radioligand. It is filed as functional.
The species entered for assay [8] is Mus musculus. Nature of the assay: Tested for percentage inhibition of PTH stimulated bone resorption in neonatal mouse calvaria placed in culture, at 1 uM concentration. The format is functional.
For assay [9], the species on record is Mus musculus. Description: Tested for percentage inhibition of PTH stimulated bone resorption in neonatal mouse calvaria placed in culture, at 10 uM concentration. The format is functional.
The species entered for assay [10] is Mus musculus. Description: Tested for percentage inhibition of PTH stimulated bone resorption in neonatal mouse calvaria placed in culture, at 100 uM concentration. The format is functional.
The species entered for assay [11] is Mus musculus. Description: Compound was tested for thymidine incorporation at 10 uM concentration. The format is functional.

Sequence of Tartrate-resistant acid phosphatase type 5 (Homo sapiens) (P13686 whole entry, looked up): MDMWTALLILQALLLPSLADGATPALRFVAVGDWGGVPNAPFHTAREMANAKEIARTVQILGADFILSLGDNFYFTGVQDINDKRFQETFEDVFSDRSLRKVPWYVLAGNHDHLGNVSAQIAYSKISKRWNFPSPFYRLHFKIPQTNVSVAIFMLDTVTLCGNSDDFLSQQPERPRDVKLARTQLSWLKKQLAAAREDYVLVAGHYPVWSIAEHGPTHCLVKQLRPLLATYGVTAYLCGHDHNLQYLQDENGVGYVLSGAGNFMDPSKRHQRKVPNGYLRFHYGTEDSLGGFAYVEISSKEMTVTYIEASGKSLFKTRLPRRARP

Consider `O=P(O)(O)C(O)c1cccc2ccccc12` (centres undefined), for which, in assay [1], the inhibition worked out at 10%. Same read-out and setting: under `O=P(O)(O)C(Cc1ccccc1)c1cccc2ccccc12` (centres undefined) stands 92%; under `O=P(O)(O)C(CC1CCCCC1)c1cccc2ccccc12` (centres undefined), 73%. The same measure, in the same setting: under `O=P(O)(O)Cc1ccc2ccccc2c1` stands 4%; under `O=P(O)(O)C(Cc1ccccc1)c1ccc2ccccc2c1` (centres undefined), 19%. As to `Cc1ccc(CC(c2cccc3ccccc23)P(=O)(O)O)cc1` (centres undefined), in assay [1], the inhibition turned out to be 75%. Consider `O=C(c1ccc2ccccc2c1)C(c1cccc2ccccc12)P(=O)(O)O` (centres undefined), for which the inhibition in assay [1] came out at 95%.

As for `O=P(O)(O)Cc1ccccc1`, in assay [1], the inhibition turned out to be 0%.

For `O=[N+]([O-])c1ccc(CC(c2cccc3ccccc23)P(=O)(O)O)cc1` (centres undefined), in [1], the inhibition worked out at 80%. The same measure, in the same setting: under `O=P(O)(O)Cc1cccc2ccccc12` stands 64%.

For the compound `O=P(O)(O)C(Cc1ccc(Cl)cc1)c1cccc2ccccc12` (centres undefined), in the assay listed under Mus musculus [2], the Control was 76%. The values for the Inhibition in the assay listed under Mus musculus [3] and in the assay listed under Mus musculus [4] were 31.9% and 101.8%, respectively. For the same compound, the inhibition in [1] is 94%. For `Cc1ccc2ccccc2c1CP(=O)(O)O`, in [1], the inhibition was found to be 20%.

`O=P(O)(O)C(Cc1ccccc1)c1ccccc1` (centres undefined): in assay [1], the inhibition was determined as 15%. In the case of ORTHOVANADATE, the values for the Control in the assay listed under Mus musculus [5], in the assay filed under Mus musculus [6] and in the assay filed under Mus musculus [7] were 127%, 94% and 0.4%, respectively. Further, the inhibition in the assay listed under Mus musculus [8] worked out at 31.3%; in the assay filed under Mus musculus [9], 72.7%; in the assay filed under Mus musculus [10] it was 130%. On to `O=C(c1ccccc1)C(C(=O)c1ccccc1)(c1cccc2ccccc12)P(=O)(O)O`, for which the inhibition in assay [1] was determined as 96%. In turn, `O=P(O)(O)C(Cl)(Cl)P(=O)(O)O` [CLODRONIC ACID] had a Control in the assay listed under Mus musculus [11] of 104%. Moreover, the Inhibition in the assay listed under Mus musculus [9] is 95.6%. For the compound `O=P(O)(O)C(Cc1ccc(Cl)cc1)(Cc1ccc(Cl)cc1)c1cccc2ccccc12`, the inhibition in [1] worked out at 87%. Regarding `Cc1ccc2ccccc2c1C(CC1CCCCC1)P(=O)(O)O` (centres undefined), the inhibition in assay [1] is 90%. The same measure, in the same setting: under `O=P(O)(O)C(Cc1ccc(-c2ccccc2)cc1)c1cccc2ccccc12` (centres undefined) stands 100%; under `COc1ccc(CC(c2cccc3ccccc23)P(=O)(O)O)cc1` (centres undefined), 73%.

Values taken from ChEMBL document CHEMBL1151540, “1-Naphthylmethylphosphonic acid derivatives as osteoclastic acid phosphatase inhibitors” (Bioorg Med Chem Lett, 1995).
